Source: US8314148B2, “Selective hydroxamate based MMP inhibitors” (Novartis AG, priority 2006, dated 2012)

Assays:
[1] = molecular target: T1, MMP02 (Homo sapiens, UniProt P08253); assay: MMP assay, determination of IC50 (fluorescence); format: biochemical; conditions: human MMP 0.5 nM, substrate 5 μM, 1 hour preincubation, pH 7.5
T1 sequence (P08253 110-660): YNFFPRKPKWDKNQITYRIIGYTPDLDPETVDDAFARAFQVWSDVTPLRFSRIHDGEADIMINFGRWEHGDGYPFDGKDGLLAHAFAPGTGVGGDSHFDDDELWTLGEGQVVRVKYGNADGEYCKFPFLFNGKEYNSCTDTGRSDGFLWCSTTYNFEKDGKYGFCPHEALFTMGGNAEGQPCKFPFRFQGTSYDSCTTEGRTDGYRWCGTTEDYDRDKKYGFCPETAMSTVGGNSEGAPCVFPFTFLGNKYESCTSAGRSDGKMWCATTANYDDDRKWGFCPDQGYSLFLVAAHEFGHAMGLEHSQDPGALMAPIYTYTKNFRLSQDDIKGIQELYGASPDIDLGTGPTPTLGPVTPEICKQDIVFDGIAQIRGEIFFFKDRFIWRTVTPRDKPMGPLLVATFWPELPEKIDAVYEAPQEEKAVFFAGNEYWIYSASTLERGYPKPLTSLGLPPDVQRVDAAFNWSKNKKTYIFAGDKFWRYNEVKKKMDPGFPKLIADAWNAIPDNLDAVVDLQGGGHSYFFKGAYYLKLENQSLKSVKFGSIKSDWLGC
Experimental: (§1) The activities of a compound according to the present invention can be assessed by the following methods well-described in the art. Determination of IC50 values in MMP assays
(§2) Dose-response curves are prepared in DMSO/water solution (90/10, v/v) in 96-well plate format and stored at 4° C. up to 24 hours prior to analysis. In all steps poly-propylene pipette tips are changed avoiding cross-contamination or compound carry over. On the day of the assay, each compound is further diluted (1/33.33; 96-well plate format) in water containing 0.05% CHAPS to 3-times the desired assay concentration. In the assay for each compound, 11 concentrations ranging from 30 to 0.0003 μM are investigated (0.0003, 0.001, 0.003, 0.01, 0.03, 0.1, 0.3, 1, 3, 10, 30 μM). A three-fold concentrated MMP solution is prepared in two-fold concentrated assay buffer 100 mM Tris-HCl buffer, pH 7.5 containing 100 mM NaCl, 10 mM CaCl2, 10 μM ZnCl2, 0.05% Brij-35 and dispensed in 96-well Greiner plates. Similarly a three-fold concentrated substrate solution (15 μM) is prepared in 100 mM Tris-HCl buffer, pH 7.5 containing 100 mM NaCl, 10 mM CaCl2, 10 μM ZnCl2, 0.05% Brij-35 and dispensed in 96-well Greiner plates. Transfer of compounds, substrate and enzyme from 96-well plates to 384-well plates is made using either Cybi™well or Cybi™disk devices.
(§3) The assay procedure is the following, in each well, 10 μL water/CHAPS (±test compound) is added, followed by 10 μL human MMP solution (final assay concentration 0.5 nM). After 1 hour of incubation at room temperature the assay is started by addition of 10 μL substrate solution (final concentration 5 μM).
(§4) The reaction is allowed to proceed for 1 hours at ambient temperature (˜20-22° C.). At the end of the incubation the fluorescence is measured as described above.
(§5) The apparent inhibition constant, IC50, is determined from the plot of percentage of inhibition vs. inhibitor concentration using non-linear regression analysis software (XLfit, Vers. 3.0.5; ID Business Solution Ltd., Guildford, Surrey, UK).

[2] = molecular target: MMP09 (Homo sapiens, UniProt P14780); assay: MMP assay, determination of IC50 (fluorescence); format: biochemical; conditions: human MMP 0.5 nM, substrate 5 μM, 1 hour preincubation, pH 7.5
MMP09, sequence (P14780 94-707): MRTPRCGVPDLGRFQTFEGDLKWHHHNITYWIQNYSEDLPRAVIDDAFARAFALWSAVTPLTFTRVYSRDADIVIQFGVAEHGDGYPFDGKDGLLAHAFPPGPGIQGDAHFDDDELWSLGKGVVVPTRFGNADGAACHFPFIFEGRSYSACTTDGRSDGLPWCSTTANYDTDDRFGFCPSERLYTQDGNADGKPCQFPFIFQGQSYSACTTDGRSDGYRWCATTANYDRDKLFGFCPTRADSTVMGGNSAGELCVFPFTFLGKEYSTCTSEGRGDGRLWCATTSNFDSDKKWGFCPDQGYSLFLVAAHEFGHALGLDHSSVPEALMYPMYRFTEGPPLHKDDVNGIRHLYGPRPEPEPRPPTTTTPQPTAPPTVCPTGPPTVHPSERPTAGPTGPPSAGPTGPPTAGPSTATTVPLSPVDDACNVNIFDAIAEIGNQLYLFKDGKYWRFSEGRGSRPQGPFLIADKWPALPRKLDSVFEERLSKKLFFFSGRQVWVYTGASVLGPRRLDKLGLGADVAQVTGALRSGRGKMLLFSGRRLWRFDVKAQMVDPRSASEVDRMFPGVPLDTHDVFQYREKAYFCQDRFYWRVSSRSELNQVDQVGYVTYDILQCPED
Experimental: as §1, §2, §3, §4, §5

[3] = molecular target: MMP12 (Homo sapiens, UniProt P39900); assay: MMP assay, determination of IC50 (fluorescence); format: biochemical; conditions: human MMP 0.5 nM, substrate 5 μM, 1 hour preincubation, pH 7.5
MMP12, sequence (P39900 106-470): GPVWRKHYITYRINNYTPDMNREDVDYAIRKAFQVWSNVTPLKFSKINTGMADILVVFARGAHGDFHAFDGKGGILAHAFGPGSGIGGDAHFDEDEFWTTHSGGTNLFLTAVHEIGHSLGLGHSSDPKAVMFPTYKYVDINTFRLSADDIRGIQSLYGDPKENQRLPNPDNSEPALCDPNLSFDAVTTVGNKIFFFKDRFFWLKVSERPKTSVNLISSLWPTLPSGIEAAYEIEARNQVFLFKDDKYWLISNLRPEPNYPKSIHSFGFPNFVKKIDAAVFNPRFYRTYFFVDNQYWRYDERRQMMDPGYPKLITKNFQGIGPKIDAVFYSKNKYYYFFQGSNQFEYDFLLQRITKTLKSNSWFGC
Experimental: as §1, §2, §3, §4, §5

[4] = molecular target: MMP13 (Homo sapiens, UniProt P45452); assay: MMP assay, determination of IC50 (fluorescence); format: biochemical; conditions: human MMP 0.5 nM, substrate 5 μM, 1 hour preincubation, pH 7.5
Experimental: as §1, §2, §3, §4, §5

Row | IC50 [1] | IC50 [2] | IC50 [3] | IC50 [4] | melting point | SMILES
1 | 7.7 µM | 0.4 µM | 0.0055 µM | 0.07 µM |  | COc1cccc(S(=O)(=O)N(CCCc2cccnc2)[C@@H](C(=O)NO)C(C)(C)C)c1 [Example 5]
2 | 1.35 µM | 0.9 µM | 0.0015 µM | 0.05 µM |  | CCNC(=O)Nc1cccc(S(=O)(=O)N(CCCN2CCCCC2)[C@@H](C(=O)NO)C(C)(C)C)c1 [Example 4-4]
3 | 3 µM | 0.3 µM | 0.002 µM | 0.03 µM |  | COc1cccc(S(=O)(=O)N(CCO)[C@@H](C(=O)NO)C(C)(C)C)c1 [Example 6]
4 | 3.7 µM | 6.9 µM | 0.065 µM | 1.2 µM |  | CC(C)CCN([C@@H](C(=O)NO)C(C)(C)C)S(=O)(=O)c1cccc(NC(=O)NC(C)C)c1 [Example 2-34]
5 | > 30 µM | > 30 µM | 0.4 µM | 6.55 µM |  | CCCN([C@@H](C(=O)NO)C(C)(C)C)S(=O)(=O)c1cccc(C(=O)OC)c1 [Example 2-39]
6 | > 30 µM | > 30 µM | 0.65 µM | 25.5 µM |  | CCCN([C@@H](C(=O)NO)C(C)(C)C)S(=O)(=O)c1cccc(C(=O)NC)c1 [Example 2-38]

More lines, now with the values behind:

Row | SMILES | IC50 [1] | IC50 [2] | IC50 [3] | IC50 [4] | melting point
7 | CCc1cccc(S(=O)(=O)N(CCC(C)C)[C@@H](C(=O)NO)C(C)(C)C)c1 [Example 2-7] | 13.9 µM | 7.83 µM | 0.225 µM | 0.5 µM | 
8 | COc1cccc(S(=O)(=O)N(Cc2ccccc2)[C@@H](C(=O)NO)C(C)(C)C)c1 [Example 2-23] | 12.5 µM | 3.5 µM | 0.145 µM | 0.8 µM | 
9 | CC(C)CCN([C@@H](C(=O)NO)C(C)(C)C)S(=O)(=O)c1cccc(N)c1 [Example 2-28] | 3.15 µM | 3.1 µM | 0.05 µM | 1.55 µM | 
10 | CC(C)CCN([C@@H](C(=O)NO)C(C)(C)C)S(=O)(=O)c1cccc(Cl)c1 [Example 2-4] | 1.7 µM | 0.725 µM | 0.0175 µM | 0.095 µM | 
11 | COC(=O)CN([C@@H](C(=O)NO)C(C)(C)C)S(=O)(=O)c1cccc(OC)c1 [Example 2-26] | 8.75 µM | 3.7 µM | 0.055 µM | 0.85 µM | 
12 | COc1cccc(S(=O)(=O)N(CC(=O)N(C)C)[C@@H](C(=O)NO)C(C)(C)C)c1 [Example 2-27] | ≥ 40.3 µM | 22.7 µM | 0.3 µM | 4.95 µM | 
13 | CCOc1cccc(S(=O)(=O)N(CCC(C)C)[C@@H](C(=O)NO)C(C)C)c1 [Example 2-17] | 28.3 µM | 12.5 µM | 0.226 µM | 2.44 µM | 
14 | CC(=O)Nc1cccc(S(=O)(=O)N(CCC(C)C)[C@@H](C(=O)NO)C(C)(C)C)c1 [Example 2-13] | 10.2 µM | 17.4 µM | 0.035 µM | 1.15 µM | 
15 | COc1cccc(S(=O)(=O)N(CC(C)C)[C@@H](C(=O)NO)C(C)(C)C)c1 [Example 2-6] | 11.1 µM | 1.5 µM | 0.0175 µM | 0.25 µM | 
16 | COc1cccc(S(=O)(=O)N(CCC(C)C)[C@@H](C(=O)NO)C(C)(C)C)c1 [Example 1, N-isoamyl-N-(3 Methoxyphenylsulfonyl)D-tert-leucine hydroxamic acid] |  |  |  |  | 115.5 to 116.5 °C
